Drawing on US20260258036A1, “INHIBITORS OF HUMAN ALDOSTERONE SYNTHASE (CYP11B2)” («TARGET MEDICALS» LIMITED LIABILITY COMPANY, priority 2022, published 2026), this text covers inhibition for 22 compounds.

The first test addresses T1, recombinant CYP11B2 (Homo sapiens, UniProt P19099).
T1 sequence (P19099 25-503): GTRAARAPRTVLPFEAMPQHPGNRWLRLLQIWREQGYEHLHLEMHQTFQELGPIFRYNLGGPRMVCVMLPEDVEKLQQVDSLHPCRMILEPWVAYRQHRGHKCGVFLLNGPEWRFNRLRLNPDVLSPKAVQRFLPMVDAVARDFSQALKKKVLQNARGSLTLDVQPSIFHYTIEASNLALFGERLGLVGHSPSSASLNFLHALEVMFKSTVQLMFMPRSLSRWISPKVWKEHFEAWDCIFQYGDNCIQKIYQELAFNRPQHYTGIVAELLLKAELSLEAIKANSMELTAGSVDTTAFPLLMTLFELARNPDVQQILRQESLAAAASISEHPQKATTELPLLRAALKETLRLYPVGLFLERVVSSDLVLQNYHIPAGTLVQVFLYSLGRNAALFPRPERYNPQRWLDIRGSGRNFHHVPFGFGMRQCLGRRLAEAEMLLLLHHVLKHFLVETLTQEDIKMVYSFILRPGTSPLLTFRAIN
Put plainly: Inhibition of CYP11B2 activity in a reconstructed enzyme system (HPLC with UV detector). The test is classed as biochemical. The conditions noted are these: compounds 1_xx; test compound final concentration ≤2 μM; corticosterone substrate; 30 minutes at 37° C.; read-out: Level of CYP11B2 activity inhibition. The protocol: The authors of the present invention investigated the activity of the compounds according to the invention as inhibitors of CYP11 B2 when analyzed in a reconstructed system containing 0.5 μm recombinant CYP1 1B2, 0.3 μm human adrenodoxin reductase, 2 μm human adrenodoxin, 100 μm corticosterone as a control reaction to detect the formation of a product with using an HPLC system with a UV detector. The test compound is added to the reaction mixture to a final concentration of ≤2 μM. The concentrated protein mixture was diluted with buffer to a final volume of 0.5 ml, pre-incubated for 10 min at 37° C., followed by the addition of the substrate. Reactions are initiated by adding NADPH (nicotinamide adenine dinucleotide phosphate) to a final concentration of 0.25 mM with a regenerating system (glucose-6-phosphate and glucose-6-phosphate dehydrogenase) in 25 mM potassium phosphate buffer, pH 7.4, containing 0.1 mM DTT (dithiothreitol), 0.1% Tween-20.4 mM MgCl2 and incubated at 37° C. After 30 minutes of incubation, the reaction is stopped by adding 5 ml of dichloromethane. The organic phase is isolated by centrifugation, evaporation, dissolution in ethanol and transferred to a vial for HPLC studies. A C18 Luna 100 Å 250×4, 6 mm column was used on an Agilent Technologies 1200 series instrument (USA) with ethanol as the mobile phase.
Activity (a) is calculated as the amount of product in nmol per minute per 1 nmol of CYP.
where k is the correction factor (k=1 is used as the molar extinction coefficients of steroid substrates and products similar at a detection wavelength of 254 nm), As is the peak area of the substrate, cs is the concentration of the substrate, Ap is the peak area of the product, ce is the concentration of CYP (cytochrome P450), t is the reaction time.
The level of inhibition of CYP11 B2 activity is expressed as a percentage, where 0% is defined as no inhibition in reactions without test compound and 100% is absolute inhibition by test compound.
The term inhibition denotes the relative decrease from the control value, in per cent. Turning to `CN1CCN(c2c(F)cc(S(=O)(=O)n3ccc4c(-c5nc(C#N)co5)cncc43)cc2F)CC1` [Compound 1_27, 2-(1-((3,5-difluoro-4-(4-methylpiperazin-1-yl)phenyl)sulfonyl)-1H-pyrrolo[2,3-c]pyridin-4-yl)oxazol-4-carbonitrile], the inhibition at 2 µM fell in the range of 50 to 100%.
Same read-out and setting: to `CN1CCN(c2c(F)cc(S(=O)(=O)n3ccc4c(-c5ccc(C#N)nc5)cncc43)cc2F)CC1` [Compound 1_28, 5-(1-((3,5-difluoro-4-(4-methylpiperazin-1-yl)phenyl)sulfonyl)-1H-pyrrolo[2,3-c]pyridin-4-yl)picolinonitrile] belongs 50 to 100%; to `CN1CCN(c2c(F)cc(S(=O)(=O)n3ccc4c(-c5ncc(F)cn5)cncc43)cc2F)CC1` [Compound 1_29, 1-((3,5-difluoro-4-(4-methylpiperazin-1-yl)phenyl)sulfonyl)-4-(5-fluoropyrimidin-2-yl)-1H-pyrrolo[2,3-c]pyridine], 50 to 100%.
On the same count and under the same terms, under `CNc1cnc(-c2cncc3c2ccn3S(=O)(=O)c2cc(F)c(N3CCN(C)CC3)c(F)c2)cn1` [Compound 1_30, 5-(1-((3,5-difluoro-4-(4-methylpiperazin-1-yl)phenyl)sulfonyl)-1H-pyrrolo[2,3-c]pyridin-4-yl)-N-methylpyrazin-2-amine] stands 1 to 100%; under `CN1CCN(c2c(F)cc(S(=O)(=O)n3ccc4c(-c5ccc(C6CC6)cn5)cncc43)cc2F)CC1` [Compound 1_31, 4-(5-cyclopropylpyridin-2-yl)-1-((3,5-difluoro-4-(4-methylpiperazin-1-yl)phenyl)sulfonyl)-1H-pyrrolo[2,3-c]pyridine], 50 to 100%; under `Cc1cnc(-c2cncc3c2ccn3S(=O)(=O)c2cc(F)c(N)c(F)c2)cn1` [Compound 1_32, 2,6-difluoro-4-((4-(5-methylpyrazin-2-yl)-1H-pyrrolo[2,3-c]pyridin-1-yl)sulfonyl)aniline], 50 to 100%.
Same read-out and setting: under `Cc1ccc(-c2cncc3c2ccn3S(=O)(=O)c2cc(F)c(N(C)C)c(F)c2)nc1` [Compound 1_33, 2,6-difluoro-N,N-dimethyl-4-((4-(5-methylpyridin-2-yl)-1H-pyrrolo[2,3-c]pyridin-1-yl)sulfonyl)aniline] stands 50 to 100%.

Staying with this test, now noted: compounds 2_xx, 3_xx, 4_01; test compound final concentration ≤2 μM; corticosterone substrate; 30 minutes at 37° C.; read-out: Level of CYP11B2 activity inhibition.
With `CN1CCN(c2c(F)cc(S(=O)(=O)n3ccc4c(-c5ccccn5)cncc43)cc2F)CC1=O` [Compound 2_01, 4-(2,6-difluoro-4-((4-(pyridin-2-yl)-1H-pyrrolo[2,3-c]pyridin-1-yl)sulfonyl)phenyl)-1-methylpiperazin-2-one], the inhibition at 2 µM lay within 35 to 100%.
The same measure, in the same setting: under `O=S(=O)(c1cc(F)c(N2CCN(CC3CC3)CC2)c(F)c1)n1ccc2c(-c3ccccn3)cncc21` [Compound 2_02, 1-((4-(4-(cyclopropylmethyl)piperazin-1-yl)-3,5-difluorophenyl)sulfonyl)-4-(pyridin-2-yl)-1H-pyrrolo[2,3-c]pyridine] stands 35 to 100%; under `CN1CC2CN(c3c(F)cc(S(=O)(=O)n4ccc5c(-c6ccc(C(=O)NC(C)(C)C)nc6)cncc54)cc3F)CC2C1` (stereo not shown) [Compound 2_03, N-(tert-butyl)-5-(1-((3,5-difluoro-4-(5-methylhexahydropyrrolo[3,4-c]pyrrol-2(1H)-yl)phenyl)sulfonyl)-1H-pyrrolo[2,3-c]pyridin-4-yl)picolinamide], 35 to 100%.
Same read-out and setting: to `O=S(=O)(c1cc(F)c(N2CCNCC2)c(F)c1)n1ccc2c(-c3ccccn3)cncc21` [Compound 3_01, 1-((3,5-difluoro-4-(piperazin-1-yl)phenyl)sulfonyl)-4-(pyridin-2-yl)-1H-pyrrolo[2,3-c]pyridine] belongs 20 to 100%; to `CNc1ccc(-c2cncc3c2ccn3S(=O)(=O)c2cc(F)c(N3CCN(C)CC3)c(F)c2)nc1` [Compound 3_02, 6-(1-((3,5-difluoro-4-(4-methylpiperazin-1-yl)phenyl)sulfonyl)-1H-pyrrolo[2,3-c]pyridin-4-yl)-N-methylpyridin-3-amine], 35 to 100%.
Same read-out and setting: to `CNc1ccc(-c2cncc3c2ccn3S(=O)(=O)c2cc(F)c(N3CCN(C)CC3)c(F)c2)cn1` [Compound 3_03, 5-(1-((3,5-difluoro-4-(4-methylpiperazin-1-yl)phenyl)sulfonyl)-1H-pyrrolo[2,3-c]pyridin-4-yl)-N-methylpyridin-2-amine] belongs 20 to 100%; to `CN1CCN(c2c(F)cc(S(=O)(=O)n3ccc4c(-c5cnc(C#N)cn5)cncc43)cc2F)CC1` [Compound 3_05, 5-(1-((3,5-difluoro-4-(4-methylpiperazin-1-yl)phenyl)sulfonyl)-1H-pyrrolo[2,3-c]pyridin-4-yl)pyrazine-2-carbonitrile], 35 to 100%.
On to `CN1CCN(c2c(F)cc(S(=O)(=O)n3ccc4c(-c5ccc(C#N)cn5)cncc43)cc2F)CC1` [Compound 3_06, 6-(1-((3,5-difluoro-4-(4-methylpiperazin-1-yl)phenyl)sulfonyl)-1H-pyrrolo[2,3-c]pyridin-4-yl)nicotinonitrile], for which the inhibition at 2 µM was 35 to 100%.
For `CNc1ccc(-c2cncc3c2ccn3S(=O)(=O)c2cc(F)c(N3CCN(C)CC3)c(F)c2)nn1` [Compound 3_07, 6-(1-((3,5-difluoro-4-(4-methylpiperazin-1-yl)phenyl)sulfonyl)-1H-pyrrolo[2,3-c]pyridin-4-yl)-N-methylpyridazin-3-amine], the inhibition at 2 µM was in the range of 35 to 100%.
The same measure, in the same setting: to `CNc1cnc(-c2cncc3c2ccn3S(=O)(=O)c2cc(F)c(N3CCN(C)CC3)c(F)c2)nc1` [Compound 3_08, 2-(1-((3,5-difluoro-4-(4-methylpiperazin-1-yl)phenyl)sulfonyl)-1H-pyrrolo[2,3-c]pyridin-4-yl)-N-methylpyrimidin-5-amine] belongs 20 to 100%; to `CN1CCN(c2c(F)cc(S(=O)(=O)n3ccc4c(-c5cnc(C#N)nc5)cncc43)cc2F)CC1` [Compound 3_09, 5-(1-((3,5-difluoro-4-(4-methylpiperazin-1-yl)phenyl)sulfonyl)-1H-pyrrolo[2,3-c]pyridin-4-yl)pyrimidine-2-carbonitrile], 35 to 100%; to `CN1CCN(c2c(F)cc(S(=O)(=O)n3ccc4c(-c5ccc(C#N)nn5)cncc43)cc2F)CC1` [Compound 3_10, 6-(1-((3,5-difluoro-4-(4-methylpiperazin-1-yl)phenyl)sulfonyl)-1H-pyrrolo[2,3-c]pyridin-4-yl)pyridazine-3-carbonitrile], 35 to 100%.
With `CC(C)N1CCN(c2c(F)cc(S(=O)(=O)n3ccc4c(-c5ccccn5)cncc43)cc2F)CC1` [Compound 3_11, 1-((3,5-difluoro-4-(4-isopropylpiperazin-1-yl)phenyl)sulfonyl)-4-(pyridin-2-yl)-1H-pyrrolo[2,3-c]pyridine], the inhibition at 2 µM lay in the range of 35 to 100%.
The same measure, in the same setting: under `O=S(=O)(c1cc(F)c(N2CCN(C3CC3)CC2)c(F)c1)n1ccc2c(-c3ccccn3)cncc21` [Compound 3_12, 1-((4-(4-cyclopropylpiperazin-1-yl)-3,5-difluorophenyl)sulfonyl)-4-(pyridin-2-yl)-1H-pyrrolo[2,3-c]pyridine] stands 20 to 100%.
On to `CN1CCCN(c2c(F)cc(S(=O)(=O)n3ccc4c(-c5ccccn5)cncc43)cc2F)CC1` [Compound 3_13, 1-((3,5-difluoro-4-(4-methyl-1,4-diazepan-1-yl)phenyl)sulfonyl)-4-(pyridin-2-yl)-1H-pyrrolo[2,3-c]pyridine], for which the inhibition at 2 µM fell in the range of 35 to 100%.
